ChEMBL document CHEMBL1201862, “PubChem BioAssay data set” (2004)
The source made the active and inactive calls.

How the values were obtained:
[1] = molecular target: T1, Corticotropin-releasing factor receptor 2/Corticotropin-releasing factor-binding protein (Homo sapiens, UniProt P24387+Q13324); assay: Dose Response confirmation of uHTS hits for small molecule antagonists of the CRF-binding protein and CRF-R2 receptor complex.; type: functional; conditions: read-out: IC50_Mean
T1 sequence (Q13324 whole entry): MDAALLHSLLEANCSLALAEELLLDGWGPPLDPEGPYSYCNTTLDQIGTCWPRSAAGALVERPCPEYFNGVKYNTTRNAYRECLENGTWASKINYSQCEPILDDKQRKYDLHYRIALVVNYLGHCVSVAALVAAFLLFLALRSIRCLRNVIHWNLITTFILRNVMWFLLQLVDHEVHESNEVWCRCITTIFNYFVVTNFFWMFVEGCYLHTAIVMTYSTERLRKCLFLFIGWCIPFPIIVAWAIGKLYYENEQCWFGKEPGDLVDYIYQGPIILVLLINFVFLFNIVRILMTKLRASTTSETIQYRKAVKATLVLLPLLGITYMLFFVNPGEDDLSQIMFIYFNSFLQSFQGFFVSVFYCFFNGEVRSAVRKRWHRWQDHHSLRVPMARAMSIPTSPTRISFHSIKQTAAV
T1 sequence (P24387 whole entry): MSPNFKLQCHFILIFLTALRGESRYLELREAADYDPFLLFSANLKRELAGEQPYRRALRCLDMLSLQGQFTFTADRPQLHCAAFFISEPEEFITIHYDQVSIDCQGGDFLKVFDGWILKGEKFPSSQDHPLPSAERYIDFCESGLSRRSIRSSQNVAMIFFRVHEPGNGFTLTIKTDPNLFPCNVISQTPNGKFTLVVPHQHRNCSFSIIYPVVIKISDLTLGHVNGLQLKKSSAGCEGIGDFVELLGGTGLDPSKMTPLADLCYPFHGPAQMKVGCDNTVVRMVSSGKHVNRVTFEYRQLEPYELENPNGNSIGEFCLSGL

[2] = molecular target: T1, Corticotropin-releasing factor receptor 2/Corticotropin-releasing factor-binding protein; assay: activators of CRF receptor 2 with binding protein – uHTS hits, confirmation (AID 602473); type: functional; conditions: read-out: EC50_Mean
[3] = Luminescence Cell-Based Dose Response HTS to Identify Activators of Luciferase Translation or Activity in H4 […] Cells. [Related pubchem assays: 1829 (Project Summary), 1814 (Primary HTS)]; type: functional
H4 = assay: Luminescence Cell-Based Dose Response HTS to Identify Activators of 5'UTR Stem-Loop Driven Prion Protein mRNA Translation in H4 Neuroglioblastoma Cells. [Related pubchem assays: 1829 (Project Summary), 1814 (Primary HTS)]; type: functional; conditions: Homo sapiens
Cytochrome P450 2C19 = Cytochrome P450 2C19 (Homo sapiens, UniProt P33261); assay: Cytochrome panel assay with activity outcomes. Panel member name: p450-cyp2c19 Compounds with AC50 equal or less than 10 uM are considered active; type: functional
Chain of Cytochrome P450 2C19 (P33261 whole entry): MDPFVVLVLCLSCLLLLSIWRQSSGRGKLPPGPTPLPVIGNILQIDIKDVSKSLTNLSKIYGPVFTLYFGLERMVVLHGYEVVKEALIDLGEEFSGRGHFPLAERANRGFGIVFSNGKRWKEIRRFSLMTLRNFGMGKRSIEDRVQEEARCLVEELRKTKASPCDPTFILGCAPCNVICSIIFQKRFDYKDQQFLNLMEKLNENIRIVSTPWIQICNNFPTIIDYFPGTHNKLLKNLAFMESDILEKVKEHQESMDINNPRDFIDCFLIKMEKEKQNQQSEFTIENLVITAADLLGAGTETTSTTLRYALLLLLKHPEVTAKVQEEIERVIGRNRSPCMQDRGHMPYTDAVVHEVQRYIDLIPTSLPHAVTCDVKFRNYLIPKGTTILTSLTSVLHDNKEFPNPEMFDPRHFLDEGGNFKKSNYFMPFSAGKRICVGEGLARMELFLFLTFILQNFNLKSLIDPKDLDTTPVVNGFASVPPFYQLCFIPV

[4] = molecular target: T2, Replicative DNA helicase DnaB (Mycobacterium tuberculosis, UniProt P9WMR3); assay: DnaB intein splicing inhibitors, dose response, biochemical, cell-free fluorescence (AID 449749); type: functional
T2 sequence (P9WMR3 whole entry): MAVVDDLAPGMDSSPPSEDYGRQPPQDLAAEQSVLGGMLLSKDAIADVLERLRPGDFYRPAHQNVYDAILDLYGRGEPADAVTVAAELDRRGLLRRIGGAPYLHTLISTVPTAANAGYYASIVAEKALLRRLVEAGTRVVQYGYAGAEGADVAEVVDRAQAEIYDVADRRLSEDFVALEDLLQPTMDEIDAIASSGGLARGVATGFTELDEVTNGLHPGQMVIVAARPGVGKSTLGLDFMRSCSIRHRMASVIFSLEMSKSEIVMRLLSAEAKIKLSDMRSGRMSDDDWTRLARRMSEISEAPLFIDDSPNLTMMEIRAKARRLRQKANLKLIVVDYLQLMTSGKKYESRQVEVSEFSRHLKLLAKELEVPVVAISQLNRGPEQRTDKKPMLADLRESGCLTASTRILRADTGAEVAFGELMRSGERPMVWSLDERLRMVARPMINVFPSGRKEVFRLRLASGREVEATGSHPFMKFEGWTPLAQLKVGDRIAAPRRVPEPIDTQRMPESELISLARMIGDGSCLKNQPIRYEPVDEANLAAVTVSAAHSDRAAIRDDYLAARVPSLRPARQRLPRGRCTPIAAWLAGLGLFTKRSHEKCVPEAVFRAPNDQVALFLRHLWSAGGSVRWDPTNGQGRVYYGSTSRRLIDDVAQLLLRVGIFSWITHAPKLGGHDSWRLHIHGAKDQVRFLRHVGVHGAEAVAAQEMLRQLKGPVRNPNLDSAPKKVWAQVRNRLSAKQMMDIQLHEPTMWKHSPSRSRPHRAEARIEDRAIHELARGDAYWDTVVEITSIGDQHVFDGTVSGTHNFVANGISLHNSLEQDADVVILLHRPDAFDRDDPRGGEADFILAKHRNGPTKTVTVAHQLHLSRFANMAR

Protein RecA = molecular target: T3, Protein RecA (Mycobacterium tuberculosis, UniProt P9WHJ3); assay: Fluorescence Cell-Free Homogeneous Dose Retest to Identify Inhibitors of RecA-Intein Splicing Activity. [Related pubchem assays (depositor defined):AID2097, AID2223, AID489010, AID492950]; type: functional
T3 sequence (P9WHJ3 whole entry): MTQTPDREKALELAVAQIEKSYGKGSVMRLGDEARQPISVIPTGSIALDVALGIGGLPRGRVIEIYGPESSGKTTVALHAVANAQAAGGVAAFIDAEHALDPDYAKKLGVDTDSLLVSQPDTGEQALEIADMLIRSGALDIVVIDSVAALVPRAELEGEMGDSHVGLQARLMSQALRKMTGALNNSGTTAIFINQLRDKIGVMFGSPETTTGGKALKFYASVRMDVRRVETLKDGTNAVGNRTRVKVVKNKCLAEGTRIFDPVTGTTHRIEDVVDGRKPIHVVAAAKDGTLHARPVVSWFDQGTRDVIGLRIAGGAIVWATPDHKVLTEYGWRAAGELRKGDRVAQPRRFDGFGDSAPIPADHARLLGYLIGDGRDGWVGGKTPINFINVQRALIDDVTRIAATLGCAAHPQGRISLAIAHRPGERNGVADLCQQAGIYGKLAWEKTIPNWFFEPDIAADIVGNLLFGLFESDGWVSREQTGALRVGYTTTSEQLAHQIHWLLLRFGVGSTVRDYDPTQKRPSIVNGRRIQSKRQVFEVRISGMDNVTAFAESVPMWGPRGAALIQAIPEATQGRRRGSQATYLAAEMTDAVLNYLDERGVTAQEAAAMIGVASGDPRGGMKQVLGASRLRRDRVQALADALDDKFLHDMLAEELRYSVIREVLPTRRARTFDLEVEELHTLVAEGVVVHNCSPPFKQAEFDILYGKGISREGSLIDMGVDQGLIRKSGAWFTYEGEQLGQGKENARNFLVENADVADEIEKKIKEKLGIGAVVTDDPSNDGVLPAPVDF

Cytochrome P450 3A4 = Cytochrome P450 3A4 (Homo sapiens, UniProt P08684);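 also: CYP3A4 tested as one member of a cytochrome P450 panel screen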
Chain of Cytochrome P450 3A4 (P08684 whole entry): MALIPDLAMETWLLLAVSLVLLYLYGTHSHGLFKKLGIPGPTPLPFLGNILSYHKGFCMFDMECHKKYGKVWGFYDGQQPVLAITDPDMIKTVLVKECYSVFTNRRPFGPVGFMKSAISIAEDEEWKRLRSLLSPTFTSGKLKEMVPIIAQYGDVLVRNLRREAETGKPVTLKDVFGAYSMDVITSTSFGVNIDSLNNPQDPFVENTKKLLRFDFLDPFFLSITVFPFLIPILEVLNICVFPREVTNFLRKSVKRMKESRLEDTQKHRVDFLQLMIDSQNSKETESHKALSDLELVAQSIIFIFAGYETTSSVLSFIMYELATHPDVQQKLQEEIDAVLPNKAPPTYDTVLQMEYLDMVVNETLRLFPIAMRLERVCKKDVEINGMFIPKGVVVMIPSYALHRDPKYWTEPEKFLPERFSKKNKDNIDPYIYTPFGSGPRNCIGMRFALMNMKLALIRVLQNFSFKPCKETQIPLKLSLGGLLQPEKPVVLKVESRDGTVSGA

Cytochrome P450 2C9 = Cytochrome P450 2C9 (Homo sapiens, UniProt P11712)
Chain of Cytochrome P450 2C9 (P11712 whole entry): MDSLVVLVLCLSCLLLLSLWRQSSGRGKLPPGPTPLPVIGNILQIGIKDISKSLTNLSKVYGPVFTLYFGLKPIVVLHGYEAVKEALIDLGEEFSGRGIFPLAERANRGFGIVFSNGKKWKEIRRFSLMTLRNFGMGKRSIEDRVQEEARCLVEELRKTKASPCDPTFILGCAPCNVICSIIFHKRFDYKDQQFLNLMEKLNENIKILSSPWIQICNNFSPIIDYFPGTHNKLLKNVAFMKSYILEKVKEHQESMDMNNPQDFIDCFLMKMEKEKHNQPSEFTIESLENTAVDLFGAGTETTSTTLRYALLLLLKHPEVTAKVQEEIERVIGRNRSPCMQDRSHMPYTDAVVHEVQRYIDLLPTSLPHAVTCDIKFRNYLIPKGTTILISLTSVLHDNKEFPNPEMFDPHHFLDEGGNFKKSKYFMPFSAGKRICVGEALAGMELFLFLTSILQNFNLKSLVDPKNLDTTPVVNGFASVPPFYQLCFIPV

## O=C1C(=Cc2cccs2)C(=O)c2ccccc21
[1]
  IC50: > 47.1 µM (inactive)
[2]
  EC50: > 53 µM (inactive)

## N#Cc1c(N2CCOCC2)nsc1-c1ccc(C(F)(F)F)cc1
[3]
  EC50: 10.9 µM (active)
H4
  EC50: 24.7 µM (active)

## N#C/C(=C\c1ccccc1)c1nc2ccc[nH]c-2n1
Cytochrome P450 2C19; read-out: AC50
  AC50: 28.2 µM (inconclusive)

## Cc1cccc(-c2nc(C[S+]([O-])CC(=O)N3CC(C)CC(C)C3)c(C)o2)c1 (stereo unspecified)
[1]
  IC50: > 47.1 µM (inactive)
[2]
  EC50: > 53 µM (inactive)

## O=C(NN1C(=O)CSC1=S)c1cccnc1
[1]
  IC50: > 47.1 µM (inactive)
[2]
  EC50: > 53 µM (inactive)

## CC(=O)N1N=C(c2ccc(C)cc2)OC1c1ccc(C(C)C)cc1 (stereo unspecified)
[3]
  EC50: > 120 µM (not active)
H4
  EC50: 6.68 µM (active)

## Cc1ccc(NC(=O)c2cnc(SCC(=O)NCC3CCCO3)n(C)c2=O)cc1C (stereo unspecified)
[4]
  AC50: 7.83 µM (active)
Protein RecA
  EC50: 2.23 µM (active)

## COc1ccccc1CNc1nc(-c2ccccc2CN(C)C)nc2ccccc12
Cytochrome P450 2C19; read-out: AC50
  AC50: 25.1 µM (inconclusive)

## OC(C#CCN1CCCCCC1)(c1ccccc1)c1cccnc1 (stereo unspecified)
[1]
  IC50: > 47.1 µM (inactive)
[2]
  EC50: > 53 µM (inactive)

## CCOC(=O)N1CCN(C(=O)CSc2nnc(-c3ccc(C(C)(C)C)cc3)o2)CC1
[1]
  IC50: > 47.1 µM (inactive)
[2]
  EC50: > 53 µM (inactive)

## O=C1NC(=O)N(CCc2ccc(F)cc2)C(=O)/C1=C/NCCCN1CCOCC1
Cytochrome P450 2C19
  AC50: inconclusive

## O=c1c(CCc2ccccc2)nc2cnc(Oc3ccccc3)nc2n1C[C@H]1CCCO1
Cytochrome P450 2C19; read-out: AC50
  AC50: 39.8 µM (inconclusive)
Cytochrome P450 3A4
  AC50: 0.0794 µM (inconclusive)

## Cc1cc(C(F)F)n2nc(C(=O)Nc3sc4c(c3C#N)CCC(C)C4)nc2n1 (stereo unspecified)
Cytochrome P450 2C19; read-out: AC50
  AC50: 31.6 µM (inconclusive)
Cytochrome P450 3A4
  AC50: 15.8 µM (inconclusive)

## CC1=NN(c2ccccc2)C(=O)C1/C=C1\C(=O)NC(=O)N(c2ccc(C)c(C)c2)C1=O (stereo unspecified)
[4]
  AC50: 23.6 µM (active)
Protein RecA
  EC50: 3.37 µM (active)

## Cc1sc(NC(=O)/C=C/C(=O)O)c(C(N)=O)c1-c1ccc(C(C)(C)C)cc1
[4]
  AC50: > 380 µM (inactive)
Protein RecA
  EC50: 5.82 µM (active)

## O=C(Nc1ccc(-c2nc3ccccc3s2)c(OC(=O)c2ccccc2)c1)c1ccccc1
H4
  EC50: > 120 µM (not active)

## CC(C)c1nc2ccccn2c1NC1CCCCC1
Cytochrome P450 2C19; read-out: AC50
  AC50: 22.4 µM (inconclusive)
Cytochrome P450 2C9
  AC50: 39.8 µM (inconclusive)

## CC(C)=CCC/C(C)=C/CO/N=C1/C[C@@H](O)[C@@H](O)[C@@H]2[C@@H]3C(=O)N(Cc4ccccc4)C(=O)[C@H]3CC[C@@H]12
Cytochrome P450 2C19
  AC50: inconclusive

## O=C1C(Cc2ccccc2)Nc2ncnc(N3CCc4ccccc4C3)c2N1Cc1ccc(Cl)cc1 (stereo unspecified)
[4]
  AC50: > 120 µM (inactive)
Protein RecA
  EC50: > 380 µM (inconclusive)

## O=C(O)C1C2CCC(C2)C1C(=O)NCc1ccco1 (stereo unspecified)
Cytochrome P450 2C19; read-out: AC50
  AC50: 7.94 µM (inconclusive)

## COc1ccc(CCNC2=C(Cl)C(=O)N(Cc3ccccc3)C2=O)cc1OC
[1]
  IC50: > 47.1 µM (inactive)
[2]
  EC50: > 53 µM (inactive)

## O=C(/C=C/c1ccc2ccccc2n1)N1CCN(c2ccccc2)CC1
[1]
  IC50: > 47.1 µM (inactive)
[2]
  EC50: > 53 µM (inactive)

## CCNc1ncc2nc(CCc3ccccc3)c(=O)n(-c3ccc(OC)cc3)c2n1
Cytochrome P450 2C19; read-out: AC50
  AC50: 39.8 µM (inconclusive)
Cytochrome P450 2C9
  AC50: 15.8 µM (inconclusive)

## COCCCN1Cc2ccccc2C1=N
Cytochrome P450 2C19; read-out: AC50
  AC50: 39.8 µM (inconclusive)
Cytochrome P450 2C9
  AC50: 11.2 µM (inconclusive)

## Cc1n[nH]c2c1C1(CCN(Cc3ccccc3)CC1)C(C#N)=C(N)O2
[4]
  AC50: > 380 µM (inactive)
Protein RecA
  EC50: 1.07 µM (active)

## CS(=O)(=O)c1ccc(C(=O)CN2C(=O)NC3(CCCc4ccccc43)C2=O)cc1 (stereo unspecified)
[1]
  IC50: > 47.1 µM (inactive)
[2]
  EC50: > 53 µM (inactive)

## O=C(CSc1nnnn1-c1ccccc1)NCCCN1CCCC1=O
[1]
  IC50: > 47.1 µM (inactive)
[2]
  EC50: > 53 µM (inactive)

## COc1cc2[nH]c(=O)n(CCCCCC(=O)NC3CCCC3)c(=O)c2cc1OC
[1]
  IC50: > 47.1 µM (inactive)
[2]
  EC50: > 53 µM (inactive)

## CC(C)(C)NC(=O)C(c1ccccn1)N(C(=O)C1CSC(=O)C1)c1cccc(F)c1 (stereo unspecified)
[1]
  IC50: > 47.1 µM (inactive)
[2]
  EC50: > 53 µM (inactive)

## CCCc1nnc(SCC(=O)N2CCCCC2C)n1CCCOC (stereo unspecified)
Cytochrome P450 2C19; read-out: AC50
  AC50: 39.8 µM (inconclusive)
Cytochrome P450 3A4
  AC50: 15.8 µM (inconclusive)
Cytochrome P450 2C9
  AC50: 0.0251 µM (inconclusive)

## CCOc1ccccc1NC(=O)CCC(=O)O
Cytochrome P450 2C19; read-out: AC50
  AC50: 3.16 µM (inconclusive)

## Cc1ccc(N2CC(C(=O)NC3CCC(C)CC3)CC2=O)cc1 (stereo unspecified)
[1]
  IC50: > 47.1 µM (inactive)
[2]
  EC50: > 53 µM (inactive)

## CN1CCC[C@@H]1c1cccnc1.Cc1ccc(C(=O)O[C@@H](C(=O)O)[C@@H](OC(=O)c2ccc(C)cc2)C(=O)O)cc1
Cytochrome P450 2C19
  AC50: inconclusive

## Cc1ccc(/N=c2/sc(C)c(C)n2C)cc1
[3]
  EC50: 13.9 µM (active)
H4
  EC50: 108 µM (active)
